Key:
α-glucosidase = test system: α-glucosidase; set-up: method as in PMID 25044593; details: cited from earlier work
[1] = biological target: T1, α-glucosidase from Saccharomyes cerevisiae (Saccharomyces cerevisiae, UniProt P53341); experiment: α-glucosidase inhibitory assay (PNPG substrate); type: biochemical; details: for inhibition at 667 µM: compound at 667 μM; for IC50: tested between 0.2 and 2 mM, three replicates
T1 construct: purchased Sigma-Aldrich (St. Louis, MO, USA)
Method: The α-glucosidase inhibitory effect was performed as follows. The 0.2 U of α-glucosidase from Saccharomyes cerevisiae, purchased from Sigma-Aldrich (St. Louis, MO, USA), was diluted to 0.067 M phosphate buffer consisting of Na2HPO4·12H2O and KH2PO4 (pH 6.8). The assay was conducted in a 60 μL reaction system containing 20 μL of diluted enzyme solution and 20 μL of DMSO or sample (dissolved in DMSO). After 10 min of incubation in the 96-well plates at 37 °C, 20 μL of 4 mM PNPG (4-nitrophenyl-α-D-glucopyranoside, Aladdin, Shanghai, China) was added as substrate to start the enzymatic reaction. The plate was incubated for an additional 20 min at 37 °C, and the reaction was quenched by adding 60 μL of 0.2 M Na2CO3. The final concentrations of tested compounds were between 0.2 and 2 mM. The optical density (OD) was measured at an absorbance wavelength of 405 nm using a Microplate Reader (Tecan, Switzerland). […] Percent inhibition was calculated by the following equation: Inhibition (%) = ((Absorbance of control − Absorbance of test)/Absorbance of control)); IC50 concentrations are calculated using concentration vs. percent inhibition values.

[2] = DPPH radical scavenging (antioxidant) test; details: for Antioxidant % Inhibition (1000 μM): compound at 1000 μM
Method: The DPPH scavenging was assayed following the procedures in our recent published paper. The DPPH radical scavenging test was performed in 96-well microplates. Then, 20 μL of samples at a concentration of 10 mM in MeOH were added to 180 μL (150 μmol/L) DPPH solution. After 30 min of light avoidance, absorbance at 517 nm using a Microplate Reader (Tecan, Switzerland) was measured and the percentage of activity was calculated. All assays were performed in three replicates, and vitamin C was used as a positive control. Percent inhibition was calculated by the following equation: Inhibition (%) = ((Absorbance of control − Absorbance of test)/Absorbance of control)); IC50 concentrations are calculated using concentration vs. percent inhibition values.

[3] = test system: several carcinoma cell lines; details: cited from earlier work
liver X receptor α = biological target: liver X receptor α; set-up: method as in PMID 33932772; details: read-out: dissociation equilibrium constant; cited from earlier work

T1 sequence (P53341 whole entry): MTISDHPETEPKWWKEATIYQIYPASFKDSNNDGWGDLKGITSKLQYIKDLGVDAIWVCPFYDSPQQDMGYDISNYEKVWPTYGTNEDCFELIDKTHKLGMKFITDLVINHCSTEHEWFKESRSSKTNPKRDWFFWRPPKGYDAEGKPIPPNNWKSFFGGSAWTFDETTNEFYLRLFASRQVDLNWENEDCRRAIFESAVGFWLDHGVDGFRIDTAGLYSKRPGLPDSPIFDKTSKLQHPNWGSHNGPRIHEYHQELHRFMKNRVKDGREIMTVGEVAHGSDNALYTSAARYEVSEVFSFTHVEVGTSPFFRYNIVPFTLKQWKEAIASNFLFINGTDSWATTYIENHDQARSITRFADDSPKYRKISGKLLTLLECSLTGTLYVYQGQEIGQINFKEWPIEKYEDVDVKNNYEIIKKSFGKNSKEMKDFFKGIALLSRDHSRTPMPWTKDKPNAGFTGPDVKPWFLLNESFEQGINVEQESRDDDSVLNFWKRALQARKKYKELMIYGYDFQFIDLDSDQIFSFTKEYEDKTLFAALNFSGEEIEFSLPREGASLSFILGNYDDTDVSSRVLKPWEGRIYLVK

Row | Compound | inhibition at 667 µM [1] | Antioxidant % Inhibition (1000 μM) [2] | also measured
1 | COc1cc(OC)c2c(=O)cc(CCCC(=O)O)oc2c1 [4-(5,7-dimethoxy-4-oxo-4H-chromen-2-yl)butanoic acid] | – | – | inhibitory activity on α-glucosidase (in words) (α-glucosidase): moderate inhibitory activity
2 | C[C@H]1O[C@H](O[C@H]2[C@H](O)[C@@H](O)[C@@H](O[C@H]3[C@H](O)[C@@H](O)C(O)O[C@@H]3CO)O[C@@H]2CO)[C@H](O)[C@@H](O)[C@@H]1N[C@H]1C=C(CO)[C@@H](O)[C@H](O)[C@H]1O (some centres unmarked) [Acarbose, acarbose, reference compound] | 27.7% | – | –
3 | COc1cc(O)c2c(=O)cc(CCC[C@@H]3CCC(=O)O3)oc2c1 [Compound 1, Penithochromone M] | -3.43% | 7.24% | –
4 | O=C(O)CCCCC(O)Cc1cc(=O)c2c(O)cc(O)cc2o1 (centres unmarked) [Compound 2, Penithochromone N] | 15.1% | 35.7% | IC50 [2]: 1970 ± 156 µM
5 | COC(=O)CCCCC(O)Cc1cc(=O)c2c(O)cc(OC)cc2o1 (centres unmarked) [Compound 3, Penithochromone O] | 23.8% | 20.4% | –
6 | COc1cc(OC)c2c(=O)cc(CCCCC(O)CC(=O)O)oc2c1 (centres unmarked) [Compound 4, Penithochromone P] | -9.72% | 12.2% | –
7 | COC(=O)CC(O)CCCCc1cc(=O)c2c(OC)cc(OC)cc2o1 (centres unmarked) [Compound 5, Penithochromone Q] | 1.41% | 11.2% | –
8 | O=C(O)CC(O)CCCCc1cc(=O)c2c(O)cc(O)cc2o1 (centres unmarked) [Compound 6, Penithochromone R] | 27.3% | 33.8% | IC50 [1]: 842 ± 11 µM
9 | COc1cc(O)c2c(=O)cc(CC(O)CCCCCCC(=O)O)oc2c1 (centres unmarked) [Compound 7, Penithochromone S] | 25.2% | 23.6% | IC50 [1]: 917 ± 8 µM
10 | COc1cc(O)c2c(=O)cc(CC(O)CCCC/C=C/C(=O)O)oc2c1 (centres unmarked) [Compound 8, Penithochromone T] | 41.7% | 19.3% | IC50 [1]: 1020 ± 22 µM
11 | COc1cc(O)c2c(=O)cc(CCCCCCC(=O)O)oc2c1 [Compound 9, penithochromone C] | 40.2% | 18.1% | IC50 [1]: 688 ± 24 µM
12 | O=C(O)CCCCCCc1cc(=O)c2c(O)cc(O)cc2o1 [Compound 10, penithochromone A] | 74.7% | 21.8% | IC50 [1]: 268 ± 25 µM
13 | O=C1O[C@H]([C@@H](O)CO)C(O)=C1O [Vitamin C, vitamin C, reference compound] | – | 96.4% | IC50 [2]: 26.7 µM
14 | COC(=O)[C@H](O)C[C@](O)(C(=O)OC)[C@@H]1Cc2c(oc3cc(C)cc(O)c3c2=O)S1 [oxalicumone A, oxalicumones A] | – | – | IC50 [3]: < 10 µM
15 | COC(=O)[C@H](O)C[C@](O)(C(=O)OC)[C@H]1Cc2c(oc3cc(C)cc(O)c3c2=O)S1 [oxalicumone B, oxalicumones B] | – | – | IC50 [3]: < 10 µM
16 | COC(=O)C(O)(C[C@@H](O)C(=O)O)[C@@H]1Cc2c(oc3cc(C)cc(O)c3c2=O)S1 (some centres unmarked) [oxalicumone D, oxalicumones D] | – | – | IC50 [3]: < 10 µM
17 | COC(=O)CC(O)(C(=O)OC)[C@@H]1Cc2c(oc3cc(C)cc(O)c3c2=O)S1 (some centres unmarked) [oxalicumone E, oxalicumones E] | – | – | IC50 [3]: < 10 µM
18 | Pestalotiochromone A | – | – | Kd (liver X receptor α): 6.2 µM
